Results reported in BindingDB's records for patent US12427146 (Inventisbio Co., 2025).

Assays:
[1] = target: Tyrosine-protein kinase CSK (Homo sapiens, UniProt P41240); test: CSK Inhibition Assay
Description: Test compound was dissolved in DMSO at 10 mM. 45 uL of compound was transferred into a 384-well compound source plate (LABCYTE cat #P-05525) and serially diluted at 1:3 ratio to create a 11-point dilutions. The same volume of DMSO was adopted as high control. 20 nL of these compounds DMSO dilutes were dispensed into a new 384-well assay plate by Echo 550. […] 15 uL of kinase assay buffer containing CSK protein and substrate was transferred to assay plate and incubated at RT for 30 minutes. Kinase assay buffer supplemented with substrate peptides was employed as low control to monitor the background. 4 μM of ATP was prepared in kinase assay buffer and 5 μL of ATP solution was added to each well to start the reaction. The assay plate was incubated at 25° C. for 90 minutes and the reaction was stopped by adding 40 μL of 0.5 M EDTA.

[2] = target: Tyrosine-protein kinase Lck (Homo sapiens, UniProt P06239); test: LCK Inhibition Assay
Description: Test compound was dissolved in DMSO at 10 mM. 45 uL of compound was transfer into a 384-well compound source plate (LABCYTE cat #P-05525) and serially diluted at 1:3 ratio to create a 11-point dilutions. The same volume of DMSO was adopted as high control. 20 nL of these compounds DMSO dilutes were dispensed into a new 384-well assay plate by Echo 550. LCK protein (0.50 nM, Cama Biosciences, cat #08-170), florescent labeled substrate FLPeptide4 (2 μM, PerkinElmer, cat #760348) was prepared in kinase assay buffer (50 mM HEPES (pH 7.5), 10 mM MgCl2, 0.01% Brij-35, 2 mM DTT and 0.005 mg/ml BSA). 15 uL of kinase assay buffer containing LCK protein and substrate was transferred to assay plate and incubate at RT for 30 minutes. Kinase assay buffer supplemented with substrate peptides was employed as low control to monitor the background. 400 μM ATP was prepared in kinase assay buffer and 5 μL of ATP solution was added to each well to start the reaction. The assay plate was incubated at 25° C. for 90 minutes and the reaction was stopped by adding 40 μL of 0.5 M EDTA.

Tyrosine-protein kinase Lck, sequence (P06239 whole entry): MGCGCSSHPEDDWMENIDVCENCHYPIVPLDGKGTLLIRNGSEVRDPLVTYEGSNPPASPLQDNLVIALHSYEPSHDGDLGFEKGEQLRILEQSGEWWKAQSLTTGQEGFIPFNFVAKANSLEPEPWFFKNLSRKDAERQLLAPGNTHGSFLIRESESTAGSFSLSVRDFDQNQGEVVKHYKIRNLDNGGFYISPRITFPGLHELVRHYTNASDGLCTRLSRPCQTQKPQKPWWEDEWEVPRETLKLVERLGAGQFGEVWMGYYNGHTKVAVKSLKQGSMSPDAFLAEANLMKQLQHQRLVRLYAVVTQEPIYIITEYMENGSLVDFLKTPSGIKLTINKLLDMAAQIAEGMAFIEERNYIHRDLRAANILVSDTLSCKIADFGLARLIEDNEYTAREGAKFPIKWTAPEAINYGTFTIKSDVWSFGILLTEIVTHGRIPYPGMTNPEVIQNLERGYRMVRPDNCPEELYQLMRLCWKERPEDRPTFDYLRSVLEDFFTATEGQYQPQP

Compound	IC50 [1] [µM]	IC50 [2] [µM]
COc1cc(F)c(S(=O)(=O)Nc2cccc(-c3nc(-c4ccccc4)sc3-c3ccnc(N)n3)c2F)c(F)c1 [US12427146, Compound 22]	0.0448	> 1
COc1cc(NS(=O)(=O)c2c(F)cccc2F)c(F)c(-c2nc(-c3ccccc3)sc2-c2ccnc(N)n2)c1 [US12427146, Compound 23]	0.0041	< 0.1
Nc1nccc(-c2sc(-c3ccccc3)nc2-c2cccc(NS(=O)(=O)c3ccc4c(c3)CNC4=O)c2F)n1 [US12427146, Compound 81]	4.51	
Nc1nccc(-c2sc(-c3ccccc3)nc2-c2cccc(NS(=O)(=O)c3ccc4c(c3)CNC4)c2F)n1 [US12427146, Compound 82]	> 10	

Other lines, results leading:

IC50 [1] [µM]	IC50 [2] [µM]	Compound
0.132	> 1	Nc1nccc(-c2sc(-c3ccccc3)nc2-c2cc(F)cc(NS(=O)(=O)c3c(F)cccc3F)c2)n1 [US12427146, Compound 20]
0.0252		COc1cc(NS(=O)(=O)c2c(F)cccc2F)cc(-c2nc(-c3cncc(F)c3)sc2-c2ccnc(N)n2)c1 [US12427146, Compound 21]
